Laboratory results as given in article PMC4769951 (Bioorganic & medicinal chemistry, 2016).

Key:
[1] = Plasma stability, mouse plasma; type: in vitro ADME; conditions: female, CD-1, mouse, pooled plasma
[2] = in vivo, cited from earlier work
Caco-2 cells = conditions: cited from earlier work
[3] = Plasma stability, rat plasma; type: in vitro ADME; conditions: female, Sprague-Dawley, pooled plasma
[4] = Plasma stability, human plasma; type: in vitro ADME; conditions: female, pooled plasma
[5] = Aqueous stability in simulated gastric fluid; type: physicochemical; conditions: 37 °C

Nc1ncnc2c1ncn2[C@@H]1O[C@H](CNS(=O)(=O)NC(=O)c2ccccc2O)[C@@H](O)[C@H]1F [Compound 2]
remaining at 6 h, 200 µM [1]: 100% | Oral exposure relative to 1 ([2]; po): 3 fold | Clearance relative to 1 [2]: 3 fold | Caco-2 permeability relative to 1 (Caco-2 cells): 3.5 fold | Efflux ratio (Caco-2 cells): 0.3 | Papp AP-BL (Caco-2 cells): 4.2 ×10⁻⁶ cm/s | Papp BL-AP (Caco-2 cells): 1.3 ×10⁻⁶ cm/s | remaining at 6 h, 200 µM [3]: 100% | remaining at 6 h, 200 µM [4]: 100%

CCCCCCCCCCCC(=O)O[C@H]1[C@@H](F)[C@H](n2cnc3c(N)ncnc32)O[C@@H]1CNS(=O)(=O)NC(=O)c1ccccc1O.CCN(CC)CC [Compound 8, 9-[2,5-Dideoxy-3-O-(dodecanoyl)-2-fluoro-5-{N-(N-2-hydroxybenzoyl)sulfamoyl}amino-β-D-ribofuranosyl]adenine Triethylammonium Salt]
Chemical hydrolysis to release the parent drug 2 ([5]; pH 1.2, 2 h): not observed

CC(=O)O[C@H]1[C@@H](F)[C@H](n2cnc3c(N)ncnc32)O[C@@H]1CNS(=O)(=O)NC(=O)c1ccccc1O.CCN(CC)CC [Compound 3, 9-[3-O-(Acetyl)-2,5-dideoxy-2-fluoro-5-{N-(N-2-hydroxybenzoyl)sulfamoyl}amino-β-D-ribofuranosyl]adenine Triethylammonium Salt]
% hydrolyzed to parent drug 2 ([5]; pH 7.4, 2 h): 8%
